Tests used:
Trap-1 = biological target: T1, Trap-1 (Homo sapiens, UniProt Q12931); test: biochemical
T1 sequence (Q12931 60-704): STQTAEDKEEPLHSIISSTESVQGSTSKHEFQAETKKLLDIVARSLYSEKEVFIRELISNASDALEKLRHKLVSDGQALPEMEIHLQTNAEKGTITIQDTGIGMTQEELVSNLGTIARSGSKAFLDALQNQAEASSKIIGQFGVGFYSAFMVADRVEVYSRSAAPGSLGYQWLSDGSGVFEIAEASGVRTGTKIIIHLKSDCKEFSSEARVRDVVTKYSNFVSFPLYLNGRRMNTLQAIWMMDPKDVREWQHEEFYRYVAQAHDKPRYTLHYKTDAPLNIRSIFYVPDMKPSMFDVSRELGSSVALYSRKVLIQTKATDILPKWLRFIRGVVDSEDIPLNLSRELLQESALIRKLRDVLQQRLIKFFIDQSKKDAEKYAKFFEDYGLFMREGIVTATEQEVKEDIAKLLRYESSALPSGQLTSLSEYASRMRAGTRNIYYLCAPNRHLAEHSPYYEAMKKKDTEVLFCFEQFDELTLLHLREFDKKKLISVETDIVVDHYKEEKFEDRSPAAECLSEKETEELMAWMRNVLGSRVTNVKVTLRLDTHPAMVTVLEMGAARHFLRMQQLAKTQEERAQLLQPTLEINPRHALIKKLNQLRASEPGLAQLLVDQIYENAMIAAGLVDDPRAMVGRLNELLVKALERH

Hsp90α = Hsp90α (Homo sapiens, UniProt P07900); test: biochemical; settings: FP competition, 6 nM Cy3B-GM, 10 nM protein, 4° C. for 24 h
Grp94 = Grp94 (Canis lupus familiaris, UniProt P41148); settings: read-out: Grp94; FP competition, 6 nM Cy3B-GM, 10 nM protein, 4° C. for 24 h
Sequence of Grp94 (P41148 with tags, fused parts or gaps DELINS287-327GGGG): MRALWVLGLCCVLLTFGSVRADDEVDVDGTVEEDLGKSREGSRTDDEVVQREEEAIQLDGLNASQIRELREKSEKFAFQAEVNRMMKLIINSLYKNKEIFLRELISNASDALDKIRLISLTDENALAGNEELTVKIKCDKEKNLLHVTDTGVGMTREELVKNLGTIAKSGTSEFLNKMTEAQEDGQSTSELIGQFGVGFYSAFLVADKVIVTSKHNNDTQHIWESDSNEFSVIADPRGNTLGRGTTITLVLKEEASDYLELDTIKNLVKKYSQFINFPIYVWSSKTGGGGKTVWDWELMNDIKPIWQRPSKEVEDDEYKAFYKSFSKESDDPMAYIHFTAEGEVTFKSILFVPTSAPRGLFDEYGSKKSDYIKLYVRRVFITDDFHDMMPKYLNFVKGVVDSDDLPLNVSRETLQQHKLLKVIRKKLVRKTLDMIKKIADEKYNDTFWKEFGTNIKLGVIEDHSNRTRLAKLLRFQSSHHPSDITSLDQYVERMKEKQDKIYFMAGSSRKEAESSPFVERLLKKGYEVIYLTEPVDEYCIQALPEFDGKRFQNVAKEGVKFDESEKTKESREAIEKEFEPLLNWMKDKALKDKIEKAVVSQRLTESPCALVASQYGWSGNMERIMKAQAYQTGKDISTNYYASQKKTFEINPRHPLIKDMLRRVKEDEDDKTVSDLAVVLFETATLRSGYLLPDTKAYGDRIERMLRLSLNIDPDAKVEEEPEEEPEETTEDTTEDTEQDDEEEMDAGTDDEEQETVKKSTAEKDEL

Hsp90β = Hsp90β (Homo sapiens, UniProt P08238)
Sequence of Hsp90β (P08238 whole entry): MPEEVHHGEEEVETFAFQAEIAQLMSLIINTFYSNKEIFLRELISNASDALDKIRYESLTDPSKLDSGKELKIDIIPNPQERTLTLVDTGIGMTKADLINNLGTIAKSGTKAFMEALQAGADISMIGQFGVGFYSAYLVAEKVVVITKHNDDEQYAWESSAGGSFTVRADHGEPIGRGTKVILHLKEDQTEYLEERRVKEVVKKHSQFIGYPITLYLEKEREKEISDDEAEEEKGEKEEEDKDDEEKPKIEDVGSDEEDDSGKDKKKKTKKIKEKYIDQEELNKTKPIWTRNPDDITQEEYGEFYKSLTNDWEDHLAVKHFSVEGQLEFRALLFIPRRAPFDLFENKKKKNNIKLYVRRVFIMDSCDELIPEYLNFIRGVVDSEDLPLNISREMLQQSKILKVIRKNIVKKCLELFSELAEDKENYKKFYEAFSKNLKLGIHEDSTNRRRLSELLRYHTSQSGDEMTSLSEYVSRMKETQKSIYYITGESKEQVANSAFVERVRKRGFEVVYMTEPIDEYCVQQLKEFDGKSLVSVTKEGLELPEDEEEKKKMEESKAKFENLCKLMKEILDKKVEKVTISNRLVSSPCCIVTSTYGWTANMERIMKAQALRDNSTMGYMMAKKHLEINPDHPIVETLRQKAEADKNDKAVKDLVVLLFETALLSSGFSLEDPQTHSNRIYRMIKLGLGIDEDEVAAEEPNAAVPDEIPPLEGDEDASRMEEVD

Structure (SMILES) | IC50 (Trap-1) | IC50 (Hsp90α) | IC50 (Grp94) | IC50 (Hsp90β)
CC(C)(CO)NCCn1c(Sc2ccc(Cl)cc2Cl)nc2c(N)ncnc21 [HJP-V-84, 2-((2-(6-Amino-8-((2,4-dichlorophenyl)thio)-9H-purin-9-yl)ethyl)amino)-2-methylpropan-1-ol] | 4.4 µM | 28.9 µM | 1.9 µM | 
CC(C)(O)CNCCn1c(Sc2ccc(Cl)cc2Cl)nc2c(N)ncnc21 [HJP-V-85, 1-((2-(6-Amino-8-((2,4-dichlorophenyl)thio)-9H-purin-9-yl)ethyl)amino)-2-methylpropan-2-ol] | 2.6 µM | 9.2 µM | 2.3 µM | 
N#CCCCn1cnc(N)c2nc(Sc3cc(Cl)cc(Cl)c3)nc1-2 [PDP-93B, 4-(6-Amino-8-((3,5-dichlorophenyl)thio)-3H-purin-3-yl)butanenitrile] | > 100 µM | > 100 µM | > 100 µM | > 100 µM
CC(Br)CCCn1cnc(N)c2nc(Sc3cc(Cl)cc(Cl)c3)nc1-2 (stereo not drawn) [PDP-99B, 3-(4-Bromopentyl)-8-((3,5-dichlorophenyl)thio)-3H-purin-6-amine] | > 100 µM | > 100 µM | > 10 µM | 
Nc1ncn(CCCCCC(F)(F)F)c2nc(Sc3cc(Cl)cc(Cl)c3)nc1-2 [PDP-101A, 8-((3,5-Dichlorophenyl)thio)-3-(6,6,6-trifluorohexyl)-3H-purin-6-amine] | > 100 µM | > 100 µM | > 100 µM | > 100 µM
Nc1ncnc2c1nc(Sc1cc(Cl)cc(Cl)c1)n2CCCCCC(F)(F)F [PDP-101B, 8-((3,5-Dichlorophenyl)thio)-9-(6,6,6-trifluorohexyl)-9H-purin-6-amine] | > 100 µM | > 100 µM | 1.65 ± 0.31 µM | > 100 µM
CC#CCn1cnc(N)c2nc(Sc3cc(Cl)cc(Cl)c3)nc1-2 [PDP-102B, 3-(But-2-yn-1-yl)-8-((3,5-dichlorophenyl)thio)-3H-purin-6-amine] | > 25 µM | > 100 µM | 10.3 ± 0.82 µM | > 100 µM
C#CCCCn1c(Sc2cc(Br)cc(I)c2)nc2c(N)ncnc21 [PDP-108A] | > 50 µM | > 50 µM | 0.133 µM | > 100 µM
Nc1ncn(CCCCC(F)(F)F)c2nc(Sc3cc(Cl)cc(Cl)c3)nc1-2 [PDP-109B, 8-((3,5-Dichlorophenyl)thio)-3-(5,5,5-trifluoropentyl)-3H-purin-6-amine] | > 100 µM | > 100 µM | > 5 µM | > 100 µM
C#CCCCCn1cnc(N)c2nc(Sc3cc(Cl)cc(Cl)c3)nc1-2 [PDP-112B, 8-((3,5-Dichlorophenyl)thio)-3-(hex-5-yn-1-yl)-3H-purin-6-amine] | > 100 µM | > 100 µM | > 10 µM | > 100 µM
C#CCCCn1c(Sc2ccc(Cl)cc2C(F)(F)F)nc2c(N)ncnc21 [PDP-117A] | 34.4 µM | > 100 µM | 1.58 µM | > 100 µM
C#CCCCn1c(Sc2cccc(Cl)c2Cl)nc2c(N)ncnc21 [PDP-119A] | > 100 µM | > 100 µM | 1.96 µM | > 100 µM
C#CCCCn1c(Sc2cc(Br)cc(OC(F)(F)F)c2)nc2c(N)ncnc21 [PDP-120A, 8-((3-Bromo-5-(trifluoromethoxy)phenyl)thio)-9-(pent-4-yn-1-yl)-9H-purin-6-amine] | 1.87 µM | > 100 µM | 1.21 µM | > 100 µM
C#CCCCn1cnc(N)c2nc(Sc3cc(Br)cc(OC(F)(F)F)c3)nc1-2 [PDP-120B] | > 100 µM | > 100 µM | > 10 µM | > 100 µM
C#CCCCn1c(Sc2cc(Cl)c(Cl)c(Cl)c2)nc2c(N)ncnc21 [PDP-121] | 2.2 ± 0.67 µM | > 100 µM | 1.66 ± 0.48 µM | > 100 µM
C#CCCCn1c(Sc2ccc(C(F)(F)F)cc2C(F)(F)F)nc2c(N)ncnc21 [PDP-122] | 7.64 ± 2.15 µM | > 100 µM | 0.5 ± 0.39 µM | > 100 µM
C#CCCCn1c(Sc2cc(Cl)cc(Cl)c2Cl)nc2c(N)ncnc21 [PDP-125A] | 6.04 ± 0.55 µM | > 100 µM | 0.19 ± 0.01 µM | > 100 µM
C#CCCCn1cnc(N)c2nc(Sc3cc(Cl)cc(Cl)c3Cl)nc1-2 [PDP-125B] | 58.8 µM | > 100 µM | 5.21 µM | > 100 µM
C#CCCCn1c(Sc2ccc(Cl)c(Cl)c2Cl)nc2c(N)ncnc21 [PDP-126A] | 4.03 ± 0.89 µM | 15.7 ± 0.35 µM | 0.27 ± 0.14 µM | 18.3 ± 1.29 µM
C#CCCCn1cnc(N)c2nc(Sc3ccc(Cl)c(Cl)c3Cl)nc1-2 [PDP-126B] | 34.1 µM | > 100 µM | 8.7 µM | > 100 µM
Nc1ncn(CCC(F)(F)F)c2nc(Sc3cc(Cl)cc(Cl)c3)nc1-2 [PDP-I-13-N3, 8-((3,5-Dichlorophenyl)thio)-3-(3,3,3-trifluoropropyl)-3H-purin-6-amine] | > 100 µM | > 50 µM | 12.8 ± 0.86 µM | > 100 µM
C#CCCCn1c(Sc2cccc3ccccc23)nc2c(N)ncnc21 [PDP-I-16-N9] | > 100 µM | > 100 µM | 2.16 ± 0.21 µM | > 100 µM
C#CCCCn1c(Sc2cc(Cl)cc(Br)c2)nc2c(N)ncnc21 [PDP-I-53-N9] | > 100 µM |  | 0.22 ± 0.02 µM | 
C#CCCCn1c(Sc2ccc(Br)cc2Cl)nc2c(N)ncnc21 [PDP-I-61-N9] | 2.62 ± 0.28 µM |  | 0.28 ± 0.06 µM | > 50 µM

Further lines, results first:

IC50 (Trap-1) | IC50 (Hsp90α) | IC50 (Grp94) | IC50 (Hsp90β) | Structure (SMILES)
4.47 ± 0.31 µM | > 50 µM | 0.45 ± 0.03 µM | > 100 µM | N#CCCCn1c(Sc2cc(Cl)cc(Cl)c2)nc2c(N)ncnc21 [PDP-93A, 4-(6-Amino-8-((3,5-dichlorophenyl)thio)-9H-purin-9-yl)butanenitrile]
> 100 µM | > 100 µM | 1.52 ± 0.03 µM | > 100 µM | CC(Br)CCCn1c(Sc2cc(Cl)cc(Cl)c2)nc2c(N)ncnc21 (stereo not drawn) [PDP-99A, 9-(4-Bromopentyl)-8-((3,5-dichlorophenyl)thio)-9H-purin-6-amine]
> 50 µM | > 100 µM | > 5 µM | > 100 µM | CC#CCn1c(Sc2cc(Cl)cc(Cl)c2)nc2c(N)ncnc21 [PDP-102A, 9-(But-2-yn-1-yl)-8-((3,5-dichlorophenyl)thio)-9H-purin-6-amine]
> 50 µM | > 100 µM | > 5 µM |  | Nc1ncnc2c1nc(Sc1cc(Cl)cc(Cl)c1)n2Cc1ccccc1 [PDP-107A, 9-Benzyl-8-((3,5-dichlorophenyl)thio)-9H-purin-6-amine]
> 100 µM | > 100 µM | 11.6 µM | > 100 µM | Nc1ncn(Cc2ccccc2)c2nc(Sc3cc(Cl)cc(Cl)c3)nc1-2 [PDP-107B, 3-Benzyl-8-((3,5-dichlorophenyl)thio)-3H-purin-6-amine]
> 100 µM | > 100 µM | 1.11 ± 0.28 µM | > 100 µM | Nc1ncnc2c1nc(Sc1cc(Cl)cc(Cl)c1)n2CCCCC(F)(F)F [PDP-109A, 8-((3,5-Dichlorophenyl)thio)-9-(5,5,5-trifluoropentyl)-9H-purin-6-amine]
> 100 µM | > 100 µM | 4.34 ± 0.75 µM | > 100 µM | Nc1ncnc2c1nc(Sc1cc(Cl)cc(Cl)c1)n2CC1CCCCC1 [PDP-110A, 9-(Cyclohexylmethyl)-8-((3,5-dichlorophenyl)thio)-9H-purin-6-amine]
> 100 µM | > 100 µM | 0.65 ± 0.05 µM | > 100 µM | C#CCCCCn1c(Sc2cc(Cl)cc(Cl)c2)nc2c(N)ncnc21 [PDP-112A, 8-((3,5-Dichlorophenyl)thio)-9-(hex-5-yn-1-yl)-9H-purin-6-amine]
> 100 µM | > 100 µM | > 2.5 µM | > 100 µM | Nc1ncnc2c1nc(Sc1cc(Cl)cc(Cl)c1)n2CCc1ccccc1 [PDP-127, 8-((3,5-Dichlorophenyl)thio)-9-phenethyl-9H-purin-6-amine]
10.1 ± 1.13 µM | > 50 µM | 0.57 ± 0.08 µM | > 100 µM | Nc1ncnc2c1nc(Sc1cc(Cl)cc(Cl)c1)n2CCC(F)(F)F [PDP-I-13-N9, 8-((3,5-Dichlorophenyl)thio)-9-(3,3,3-trifluoropropyl)-9H-purin-6-amine]
> 100 µM | > 100 µM | 0.27 ± 0.02 µM | > 100 µM | C#CCCn1c(Sc2cc(Cl)cc(Cl)c2)nc2c(N)ncnc21 [PDP-I-14-N9, 9-(But-3-yn-1-yl)-8-((3,5-dichlorophenyl)thio)-9H-purin-6-amine]
> 50 µM |  | 0.46 ± 0.04 µM |  | Nc1ncnc2c1nc(Sc1cc(Cl)cc(Cl)c1)n2CCCC(F)(F)F [PDP-I-15-N9, 8-((3,5-Dichlorophenyl)thio)-9-(4,4,4-trifluorobutyl)-9H-purin-6-amine]
